These results are taken from BindingDB's records for doi:10.1021/jm9800245 (F. Hoffmann-La Roche, 1998).

The nature of assay [1]: Inhibition of beta-lactamase of Escherichia coli TEM-3 […].
Assay [2] has as its target Beta-lactamase AmpC (Pseudomonas aeruginosa). The assay is described as follows: Inhibition of beta-lactamase of Pseudomonas aeruginosa 18 SH (class C).

Where a name gives a salt, the structure may show the parent alone.

As usually defined, the IC50 is the midpoint of a concentration-inhibition curve. Read a low IC50 as greater potency in that assay.

With `NC(=O)c1ccc(NC(=O)N2CC[C@@H]3C2C(=O)N3S(=O)(=O)O)cc1` (stereo partly drawn) [(2S,5R)-2-(4-Carbamoyl-phenylcarbamoyl)-7-oxo-2,6-diaza-bicyclo[3.2.0]heptane-6-sulfonic acid], the IC50 came out at 9000 µM in assay [1] and 0.217 µM in assay [2].
As to `CC(C)(C)OC(=O)N1CC[C@@H]2C1C(=O)N2S(=O)(=O)O` (stereo partly drawn) [(2S,5R)-7-Oxo-6-sulfo-2,6-diaza-bicyclo[3.2.0]heptane-2-carboxylic acid tert-butyl ester], the IC50 is more than 1000 µM in assay [1] and 1.5 µM in assay [2].
Turning to `NC(=O)c1ccc(NC(=O)N2CCC3C2C(=O)N3OS(=O)(=O)O)cc1` (configuration not stated) [sodium salt-Sulfuric acid mono-[2-(4-carbamoyl-phenylcarbamoyl)-7-oxo-2,6-diaza-bicyclo[3.2.0]hept-6-yl] ester], in assay [2], the concentration for half-maximal inhibition (IC50) was 0.026 µM.
For the molecule `CC(C)(C)OC(=O)N1CCC2C1C(=O)N2OS(=O)(=O)O` (configuration not stated) [sodium salt-tert-butyl 7-oxo-6-(sulfooxy)-2,6-diazabicyclo[3.2.0]heptane-2-carboxylate], the IC50 stood at 0.165 µM in assay [1] and 0.028 µM in assay [2].
